According to patent US20250136722A1, “CYTOTOXICITY TARGETING CHIMERAS” (GLAXOSMITHKLINE INTELLECTUAL PROPERTY DEVELOPMENT LIMITED, priority 2021, published 2025):
“And” between values parts separate entries of the source, which are not always exact repeats. Equal entries are not always repeated.

Tests used:
[1] = biological target: T1, CHOK1 cells engineered to overexpress human CCR2 (Homo sapiens, UniProt P41597); experiment: Antibody dependent cellular cytotoxicity (ADCC) reporter assay (Example 199); type: cell-based; conditions: with anti-cotinine antibody SEQ ID NO: 11/12; CHOK1-human CCR2 target cells, Jurkat FcγRIIIa NFAT-luciferase reporter cells; 12-18 hours; read-out: ADCC Reporter Assay pEC50 (converted)
T1 construct: expressed in transfected cells; host or cells: CHOK1 cells
Procedure, shortened: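 Potency is reported as pEC50 from a nonlinear fit, averaged over runs, using luciferase signal divided by that of compound-free wells. The readout comes from NFAT-luciferase Jurkat cells expressing FcγRIIIa, mixed for 12–18 h with human CCR2-overexpressing CHOK1 cells, 1 pM–10 μM ARM compound and 0.01–200 μg/mL Fc-enhanced anti-cotinine IgG1.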

[2] = biological target: Anti-cotinine antibody (SEQ ID NO: 11 / SEQ ID NO: 12, rabbit variable region with human IgG1 Fc domain); experiment: Binding of anti-cotinine antibody to ARM compounds by SPR, Biacore T200, 37° C. (Example 202); conditions: pH 7.4, rabbit variable region/human IgG1 Fc antibody captured on protein A
Procedure, shortened: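 Run at 37° C. in 10 mM HEPES pH 7.4, 150 mM NaCl, 0.005% P20, 1% DMSO. Compound titrated from 200 nM (five 3-fold steps) over protein A-captured antibody, with 200/2000 s association/dissociation. 1:1 kinetic fit gave kon, koff, Kd and residence time (1/koff); pKd averaged where runs repeated.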

[3] = biological target: human alpha1 nicotinic acetylcholine (nACh) receptor (Homo sapiens, UniProt P02708+Q07001); experiment: Nicotinic acetylcholine receptor antagonism assay, IONFlux automated patch clamp (Example 203); type: cell-based; conditions: for IC50: nAChR antagonism, ACh stimulated, patch clamp; for Emax at 100 µM: maximum percentage antagonism at maximum concentration tested 100 μM; for Emax at 10 µM: maximum percentage antagonism at maximum concentration tested 10 μM
Chain of human alpha1 nicotinic acetylcholine (nACh) receptor (P02708 21-457): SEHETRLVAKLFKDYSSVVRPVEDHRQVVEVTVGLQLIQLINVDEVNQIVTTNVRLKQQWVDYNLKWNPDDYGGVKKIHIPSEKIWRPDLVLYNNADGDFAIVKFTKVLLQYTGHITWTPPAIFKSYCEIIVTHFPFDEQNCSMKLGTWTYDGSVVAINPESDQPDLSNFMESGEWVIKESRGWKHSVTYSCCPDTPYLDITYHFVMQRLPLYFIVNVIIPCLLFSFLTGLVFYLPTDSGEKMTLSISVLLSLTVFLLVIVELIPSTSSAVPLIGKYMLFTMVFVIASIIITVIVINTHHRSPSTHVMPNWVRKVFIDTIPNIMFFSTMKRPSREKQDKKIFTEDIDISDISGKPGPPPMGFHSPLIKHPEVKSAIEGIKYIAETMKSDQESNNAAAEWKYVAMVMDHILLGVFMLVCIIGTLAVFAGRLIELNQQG
Chain of human alpha1 nicotinic acetylcholine (nACh) receptor (P11230 24-501 partner): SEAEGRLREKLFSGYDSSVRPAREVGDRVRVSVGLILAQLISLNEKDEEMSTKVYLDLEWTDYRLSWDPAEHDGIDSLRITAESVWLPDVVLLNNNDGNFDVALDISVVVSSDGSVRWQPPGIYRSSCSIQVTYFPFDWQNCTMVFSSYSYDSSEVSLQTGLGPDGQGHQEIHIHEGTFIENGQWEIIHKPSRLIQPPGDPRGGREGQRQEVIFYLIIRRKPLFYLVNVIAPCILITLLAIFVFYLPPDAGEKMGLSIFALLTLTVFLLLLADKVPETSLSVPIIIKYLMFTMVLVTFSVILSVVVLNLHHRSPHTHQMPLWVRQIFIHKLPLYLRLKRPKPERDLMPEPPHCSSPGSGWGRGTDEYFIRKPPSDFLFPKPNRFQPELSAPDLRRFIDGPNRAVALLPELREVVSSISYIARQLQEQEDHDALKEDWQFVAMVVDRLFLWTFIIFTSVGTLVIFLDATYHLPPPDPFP
Chain of human alpha1 nicotinic acetylcholine (nACh) receptor (Q07001 22-517): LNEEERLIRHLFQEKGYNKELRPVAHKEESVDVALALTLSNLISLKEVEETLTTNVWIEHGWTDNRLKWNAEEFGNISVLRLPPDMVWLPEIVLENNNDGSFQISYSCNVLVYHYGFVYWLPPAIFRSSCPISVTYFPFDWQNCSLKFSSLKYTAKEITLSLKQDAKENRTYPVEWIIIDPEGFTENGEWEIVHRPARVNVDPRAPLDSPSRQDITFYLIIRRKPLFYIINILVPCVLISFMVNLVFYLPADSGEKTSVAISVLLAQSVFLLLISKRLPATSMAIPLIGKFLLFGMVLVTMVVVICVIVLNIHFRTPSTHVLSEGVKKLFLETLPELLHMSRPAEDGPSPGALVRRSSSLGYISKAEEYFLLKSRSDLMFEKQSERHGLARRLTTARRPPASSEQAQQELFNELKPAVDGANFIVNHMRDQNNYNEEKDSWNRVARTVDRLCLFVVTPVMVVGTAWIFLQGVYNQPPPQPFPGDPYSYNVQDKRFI
Procedure, shortened: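 Human α1 nAChR-expressing cells were preincubated with compound (top 10 μM or 100 μM), then stimulated with 10 mM ACh; peak currents were recorded by IONFlux automated patch clamp. Percent inhibition versus ACh-alone control was vehicle- and rundown-corrected, then fitted to give IC50, with maximal antagonism at the top concentration; recordings with control current <500 pA were excluded.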

Emax at 11.11 µM ([3]; maximum percentage antagonism at maximum concentration tested 11.11 μM, read-out: Maximum Response (%)) [%]	Emax at 10 µM ([3]; read-out: Maximum Response (%)) [%]	Compound	EC50 [1]	pKd of Antibody for ARM Compound of Formula (I) [2]	IC50 [3] [nM]	Emax at 30 µM ([3]; maximum percentage antagonism at maximum concentration tested 30 μM, read-out: Maximum Response (%)) [%]	Emax at 100 µM ([3]; read-out: Maximum Response (%)) [%]
10	–	CC(C)N(C)[C@@H]1CC[C@H](N2CC[C@H](Nc3ncnc4ccc(C(F)(F)F)cc34)C2=O)[C@H](NC(=O)[C@H]2CC[C@H](NC(=O)CCOC[C@H]3CC[C@H](COCCNC(=O)[C@H]4CC(=O)N(C)[C@@H]4c4cccnc4)CC3)CC2)C1 [Example 53, (2S,3S)-N-(2-(((1R,4S)-4-((3-(((1R,4R)-4-(((1R,2S,5R)-5-(Isopropyl(methyl)amino)-2-((S)-2-oxo-3-((6-(trifluoromethyl)quinazolin-4-yl)amino)pyrrolidin-1-yl)cyclohexyl)carbamoyl)cyclohexyl)amino)-3-oxopropoxy)methyl)cyclohexyl)methoxy)ethyl)-1-methyl-5-oxo-2-(pyridin-3-yl)pyrrolidine-3-carboxamide]	7.6 nM	9.531	> 11100	–	–
–	–	CC(C)N(C)[C@@H]1CC[C@H](N2CC[C@H](Nc3ncnc4ccc(C(F)(F)F)cc34)C2=O)[C@H](NC(=O)[C@H]2CC[C@H](NC(=O)CCCOC[C@H]3CC[C@@H](COCCNC(=O)[C@H]4CC(=O)N(C)[C@@H]4c4cccnc4)CC3)CC2)C1 [Example 57, (2S,3S)-N-(2-(((1S,4R)-4-((4-(((1R,4R)-4-(((1R,2S,5R)-5-(Isopropyl(methyl)amino)-2-((S)-2-oxo-3-((6-(trifluoromethyl)quinazolin-4-yl)amino)pyrrolidin-1-yl)cyclohexyl)carbamoyl)cyclohexyl)amino)-4-oxobutoxy)methyl)cyclohexyl)methoxy)ethyl)-1-methyl-5-oxo-2-(pyridin-3-yl)pyrrolidine-3-carboxamide]	1.61 nM and 1.48 nM and 5.07 nM	9.685	> 30000	47.6	–
–	–	CC(C)N(C)[C@@H]1CC[C@H](N2CC[C@H](Nc3ncnc4ccc(C(F)(F)F)cc34)C2=O)[C@H](NC(=O)CCNC(=O)CCCOC[C@H]2CC[C@@H](COCCNC(=O)[C@H]3CC(=O)N(C)[C@@H]3c3cccnc3)CC2)C1 [Example 62]	0.867 nM	9.6305	29000	–	67.9
–	–	CC(C)N(C)[C@@H]1CC[C@H](N2CC[C@H](Nc3ncnc4ccc(C(F)(F)F)cc34)C2=O)[C@H](NC(=O)[C@H]2CC[C@@H](NC(=O)CCOCCOCCNC(=O)CNC(=O)[C@H]3CC(=O)N(C)[C@@H]3c3cccnc3)CC2)C1 [Example 63, (2S,3S)-N-(2-((2-(2-(3-(((1 S,4s)-4-(((1R,2S,5R)-5-(Isopropyl(methyl)amino)-2-((S)-2-oxo-3-((6-(trifluoromethyl)quinazolin-4-yl)amino)pyrrolidin-1-yl)cyclohexyl)carbamoyl)cyclohexyl)amino)-3-oxopropoxy)ethoxy)ethyl)amino)-2-oxoethyl)-1-methyl-5-oxo-2-(pyridin-3-yl)pyrrolidine-3-carboxamide]	0.67 nM and 0.31 nM	8.674	38500	–	76.6
–	32.7	CC(C)N(C)[C@@H]1CC[C@H](N2CC[C@H](Nc3ncnc4ccc(C(F)(F)F)cc34)C2=O)[C@H](NC(=O)[C@H]2CC[C@@H](C3CCN(C(=O)CCOCCOCCNC(=O)[C@H]4CC(=O)N(C)[C@@H]4c4cccnc4)CC3)CC2)C1 [Example 72, (2S,3S)-N-(2-(2-(3-(4-((1S,4s)-4-(((1R,2S,5R)-5-(isopropyl(methyl)amino)-2-((S)-2-oxo-3-((6-(trifluoromethyl)quinazolin-4-yl)amino)pyrrolidin-1-yl)cyclohexyl)carbamoyl)cyclohexyl)piperidin-1-yl)-3-oxopropoxy)ethoxy)ethyl)-1-methyl-5-oxo-2-(pyridin-3-yl)pyrrolidine-3-carboxamide]	7.94 nM	9.8865	> 10000	–	–
–	–	CC(C)N(C)[C@@H]1CC[C@H](N2CC[C@H](Nc3ncnc4ccc(C(F)(F)F)cc34)C2=O)[C@H](NC(=O)CCOCCOCCNC(=O)CCOCCOCCNC(=O)[C@H]2CC(=O)N(C)[C@@H]2c2cccnc2)C1 [Example 76]	2.51 nM	9.1155	32400	–	67.7
–	19.6	CC(C)N(C)[C@@H]1CC[C@H](N2CC[C@H](Nc3ncnc4ccc(C(F)(F)F)cc34)C2=O)[C@H](NC(=O)COCCOCCNC(=O)CCOCCOCCNC(=O)[C@H]2CC(=O)N(C)[C@@H]2c2cccnc2)C1 [Example 77]	5.52 nM	9.152	> 10000	–	–
–	–	CC(C)N(C)[C@@H]1CC[C@H](N2CC[C@H](Nc3ncnc4ccc(C(F)(F)F)cc34)C2=O)[C@H](NC(=O)[C@H]2CC[C@@H](NC(=O)COCCNC(=O)COCCNC(=O)[C@H]3CC(=O)N(C)[C@@H]3c3cccnc3)CC2)C1 [Example 99]	1.99 nM	9.062	33100	–	71.1
–	–	CC(C)N(C)[C@@H]1CC[C@H](N2CC[C@H](Nc3ncnc4ccc(C(F)(F)F)cc34)C2=O)[C@H](NC(=O)CCOCCNC(=O)COCCNC(=O)COCCNC(=O)[C@H]2CC(=O)N(C)[C@@H]2c2cccnc2)C1 [Example 102, (2S,3S)-N-(18-(((1R,2S,5R)-5-(Isopropyl(methyl)amino)-2-((S)-2-oxo-3-((6-(trifluoromethyl)quinazolin-4-yl)amino)pyrrolidin-1-yl)cyclohexyl)amino)-5,11,18-trioxo-3,9,15-trioxa-6,12-diazaoctadecyl)-1-methyl-5-oxo-2-(pyridin-3-yl)pyrrolidine-3-carboxamide]	1.26 nM	9.076	66100	–	61.3
–	–	CC(C)N(C)[C@@H]1CC[C@H](N2CC[C@H](Nc3ncnc4ccc(C(F)(F)F)cc34)C2=O)[C@H](NC(=O)CCOCCNC(=O)CCOCCNC(=O)COCCNC(=O)[C@H]2CC(=O)N(C)[C@@H]2c2cccnc2)C1 [Example 105]	0.794 nM	9.0705	38900	–	75.7
–	–	CC(C)N(C)[C@@H]1CC[C@H](N2CC[C@H](Nc3ncnc4ccc(C(F)(F)F)cc34)C2=O)[C@H](NC(=O)COCCNC(=O)COCCNC(=O)COCCNC(=O)[C@H]2CC(=O)N(C)[C@@H]2c2cccnc2)C1 [Example 111, (2S,3S)-N-(17-(((1R,2S,5R)-5-(Isopropyl(methyl)amino)-2-((S)-2-oxo-3-((6-(trifluoromethyl)quinazolin-4-yl)amino)pyrrolidin-1-yl)cyclohexyl)amino)-5,11,17-trioxo-3,9,15-trioxa-6,12-diazaheptadecyl)-1-methyl-5-oxo-2-(pyridin-3-yl)pyrrolidine-3-carboxamide]	6.31 nM	9.0855	52900	–	67.6
–	–	CC(C)N(C)[C@@H]1CC[C@H](N2CC[C@H](Nc3ncnc4ccc(C(F)(F)F)cc34)C2=O)[C@H](NC(=O)CNC(=O)[C@H]2CC[C@@H](NC(=O)CCOCCOCCNC(=O)[C@H]3CC(=O)N(C)[C@@H]3c3cccnc3)CC2)C1 [Example 137, (2S,3S)-N-(2-(2-(3-(((1S,4s)-4-((2-(((1R,2S,5R)-5-(Isopropyl(methyl)amino)-2-((S)-2-oxo-3-((6-(trifluoromethyl)quinazolin-4-yl)amino)pyrrolidin-1-yl)cyclohexyl)amino)-2-oxoethyl)carbamoyl)cyclohexyl)amino)-3-oxopropoxy)ethoxy)ethyl)-1-methyl-5-oxo-2-(pyridin-3-yl)pyrrpolidine-3-carboxamide]	1.67 nM	9.336	70000	–	62

Compound	Emax at 11.11 µM ([3]; maximum percentage antagonism at maximum concentration tested 11.11 μM, read-out: Maximum Response (%)) [%]	Emax at 10 µM ([3]; read-out: Maximum Response (%)) [%]	EC50 [1]	pKd of Antibody for ARM Compound of Formula (I) [2]	IC50 [3] [nM]	Emax at 30 µM ([3]; maximum percentage antagonism at maximum concentration tested 30 μM, read-out: Maximum Response (%)) [%]	Emax at 100 µM ([3]; read-out: Maximum Response (%)) [%]
CC(C)N(C)[C@@H]1CC[C@H](N2CC[C@H](Nc3ncnc4ccc(C(F)(F)F)cc34)C2=O)[C@H](NC(=O)CCOCCNC(=O)[C@H]2CC[C@@H](NC(=O)COCCNC(=O)[C@H]3CC(=O)N(C)[C@@H]3c3cccnc3)CC2)C1 [Example 107, (2S,3S)-N-(2-(2-(((1S,4R)-4-((2-(3-(((1R,2S,5R)-5-(Isopropyl(methyl)amino)-2-((S)-2-oxo-3-((6-(trifluoromethyl)quinazolin-4-yl)amino)pyrrolidin-1-yl)cyclohexyl)amino)-3-oxopropoxy)ethyl)carbamoyl)cyclohexyl)amino)-2-oxoethoxy)ethyl)-1-methyl-5-oxo-2-(pyridin-3-yl)pyrrolidine-3-carboxamide]	–	12.2	0.158 nM	9.161	> 10000	–	–
